Experimental data as given in ChEMBL document CHEMBL5576135, “Discovery of Indolo[3,2-c]isoquinoline Derivatives as Novel Top1/2 Dual Inhibitors with Orally Efficacious Antitumor Activity and Low Toxicity” (J Med Chem, 2024).
Activity calls are given as the source filed them. No cut-off for these calls is given here.

Key:
[1] = Toxicity in Kunming mouse assessed as reduction in body weight at 100 mg/kg,po administrated for 3 days; type: organism-based; set-up: scale not given: the % may be the effect or the level left; details: in vivo, 72 h, time 3 day
[2] = Toxicity in Kunming mouse assessed as lethal dose at po administration for 2 weeks; type: organism-based; details: in vivo
HCT-116 [3] = test: Antiproliferative activity against human HCT-116 cells assessed as inhibition of cell growth incubated for 96 hrs by MTT based ELISA; type: functional; details: HCT-116, 96 h
DU-145 = test: Antiproliferative activity against human DU-145 cells assessed as inhibition of cell growth incubated for 96 hrs by MTT based ELISA; type: functional; details: DU-145, 96 h
NCI-H2228 = test: Antiproliferative activity against human NCI-H2228 cells assessed as inhibition of cell growth incubated for 96 hrs by MTT based ELISA; type: functional; details: NCI-H2228, 96 h
A549 = test: Antiproliferative activity against human A549 cells assessed as inhibition of cell growth incubated for 96 hrs by MTT based ELISA; type: functional; details: A549, 96 h
NCI-H446 [4] = test: Antitumor activity against human NCI-H446 cells xenografted with BALB/c mouse assessed as tumor growth inhibition by measuring T/C ratio at 4 mg/kg,ip administrated 3 times weekly for 21 days in presence of cisplatin; type: functional; details: time 21 day
MDA-MB-231 = test: Antiproliferative activity against human MDA-MB-231 cells assessed as inhibition of cell growth incubated for 96 hrs by MTT based ELISA; type: functional; details: MDA-MB-231, 96 h
PC-3 = test: Antiproliferative activity against human PC-3 cells assessed as inhibition of cell growth incubated for 96 hrs by MTT based ELISA; type: functional; details: PC-3, 96 h
MCF7 = test: Antiproliferative activity against human MCF7 cells assessed as inhibition of cell growth incubated for 96 hrs by MTT based ELISA; type: functional; details: MCF7, 96 h
Huh-7 = test: Antiproliferative activity against human Huh-7 cells assessed as inhibition of cell growth incubated for 96 hrs by MTT based ELISA; type: functional; details: Huh-7, 96 h
NCI-H1975 = test: Antiproliferative activity against human NCI-H1975 cells assessed as inhibition of cell growth incubated for 96 hrs by MTT based ELISA; type: functional; details: NCI-H1975, 96 h
[5] = Antiproliferative activity against human BEAS-2B cells assessed as inhibition of cell growth incubated for 96 hrs by MTT based ELISA; type: toxicity
[6] = Toxicity in Kunming mouse assessed as reduction in body weight at 30 mg/kg,ip administrated for 3 days; type: organism-based; set-up: scale not given: the % may be the effect or the level left; details: in vivo, 72 h, time 3 day
NCI-H1650 = test: Antiproliferative activity against human NCI-H1650 cells assessed as inhibition of cell growth incubated for 96 hrs by MTT based ELISA; type: functional; details: NCI-H1650, 96 h
PC-9 = test: Antiproliferative activity against human PC-9 cells assessed as inhibition of cell growth incubated for 96 hrs by MTT based ELISA; type: functional; details: PC-9, 96 h
NCI-H446 [7] = test: Antiproliferative activity against human NCI-H446 cells assessed as inhibition of cell growth incubated for 96 hrs by MTT based ELISA; type: functional; details: NCI-H446, 96 h
NCI-H446 [8] = test: Antitumor activity against human NCI-H446 cells xenografted with BALB/c mouse assessed as tumor growth inhibition at 4 mg/kg,ip administrated 3 times weekly for 21 days in presence of cisplatin relative to control; type: functional; details: NCI-H446, 504 h, time 21 day, read-out: TGI
[9] = biological target: DNA topoisomerase 2-alpha (Homo sapiens) (UniProt P11388); test: Inhibition of Topoisomerase 2 (unknown origin) using pBR322 DNA as substrate at 10 uM incubated for 15 mins by EtBr staining based agarose gel electrophoresis method
DNA topoisomerase 2-alpha (Homo sapiens), sequence (P11388 whole entry): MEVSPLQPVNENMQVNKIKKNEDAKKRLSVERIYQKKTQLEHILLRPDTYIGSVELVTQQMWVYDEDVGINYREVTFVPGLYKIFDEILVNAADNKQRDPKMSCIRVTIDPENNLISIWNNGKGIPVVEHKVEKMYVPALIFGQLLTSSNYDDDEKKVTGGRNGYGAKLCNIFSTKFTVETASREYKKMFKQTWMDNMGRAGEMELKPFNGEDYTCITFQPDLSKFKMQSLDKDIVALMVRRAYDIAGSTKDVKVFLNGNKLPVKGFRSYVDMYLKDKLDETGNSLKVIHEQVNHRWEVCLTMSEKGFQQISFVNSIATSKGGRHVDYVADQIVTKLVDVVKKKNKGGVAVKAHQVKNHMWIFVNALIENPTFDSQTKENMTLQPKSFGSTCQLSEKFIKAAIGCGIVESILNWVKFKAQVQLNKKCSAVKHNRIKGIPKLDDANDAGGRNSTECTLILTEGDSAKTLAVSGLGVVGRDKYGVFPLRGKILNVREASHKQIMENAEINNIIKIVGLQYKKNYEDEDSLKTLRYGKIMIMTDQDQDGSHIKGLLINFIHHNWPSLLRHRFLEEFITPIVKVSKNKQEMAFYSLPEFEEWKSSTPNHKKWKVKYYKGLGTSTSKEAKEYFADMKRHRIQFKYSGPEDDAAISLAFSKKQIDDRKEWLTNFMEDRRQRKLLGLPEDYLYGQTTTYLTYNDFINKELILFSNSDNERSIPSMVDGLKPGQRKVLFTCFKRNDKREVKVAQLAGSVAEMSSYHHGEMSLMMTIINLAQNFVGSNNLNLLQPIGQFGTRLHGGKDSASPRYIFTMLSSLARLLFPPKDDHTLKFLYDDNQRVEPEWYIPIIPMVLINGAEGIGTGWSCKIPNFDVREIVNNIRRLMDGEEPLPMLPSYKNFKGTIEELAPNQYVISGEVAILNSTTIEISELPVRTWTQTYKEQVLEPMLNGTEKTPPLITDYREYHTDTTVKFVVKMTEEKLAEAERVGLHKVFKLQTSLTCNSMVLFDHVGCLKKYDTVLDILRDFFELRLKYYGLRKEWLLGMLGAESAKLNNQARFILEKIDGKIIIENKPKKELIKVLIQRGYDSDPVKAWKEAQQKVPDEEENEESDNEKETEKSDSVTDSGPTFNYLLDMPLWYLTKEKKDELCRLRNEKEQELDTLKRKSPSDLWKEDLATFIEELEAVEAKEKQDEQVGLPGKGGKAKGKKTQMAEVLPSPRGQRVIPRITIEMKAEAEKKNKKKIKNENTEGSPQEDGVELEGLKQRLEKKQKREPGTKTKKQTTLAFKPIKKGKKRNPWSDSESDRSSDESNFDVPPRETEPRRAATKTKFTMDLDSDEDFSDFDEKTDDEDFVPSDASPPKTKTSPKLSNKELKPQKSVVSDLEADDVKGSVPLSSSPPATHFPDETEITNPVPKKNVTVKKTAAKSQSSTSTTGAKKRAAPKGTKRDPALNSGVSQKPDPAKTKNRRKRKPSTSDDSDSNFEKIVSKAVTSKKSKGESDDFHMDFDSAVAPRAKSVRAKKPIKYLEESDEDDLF

[10] = biological target: T1, DNA topoisomerase 1 (Homo sapiens) (UniProt P11387); test: Inhibition of Topoisomerase I (unknown origin) using pBR322 DNA as substrate at 10 uM incubated for 15 mins by EtBr staining based agarose gel electrophoresis method
T1 sequence (whole entry): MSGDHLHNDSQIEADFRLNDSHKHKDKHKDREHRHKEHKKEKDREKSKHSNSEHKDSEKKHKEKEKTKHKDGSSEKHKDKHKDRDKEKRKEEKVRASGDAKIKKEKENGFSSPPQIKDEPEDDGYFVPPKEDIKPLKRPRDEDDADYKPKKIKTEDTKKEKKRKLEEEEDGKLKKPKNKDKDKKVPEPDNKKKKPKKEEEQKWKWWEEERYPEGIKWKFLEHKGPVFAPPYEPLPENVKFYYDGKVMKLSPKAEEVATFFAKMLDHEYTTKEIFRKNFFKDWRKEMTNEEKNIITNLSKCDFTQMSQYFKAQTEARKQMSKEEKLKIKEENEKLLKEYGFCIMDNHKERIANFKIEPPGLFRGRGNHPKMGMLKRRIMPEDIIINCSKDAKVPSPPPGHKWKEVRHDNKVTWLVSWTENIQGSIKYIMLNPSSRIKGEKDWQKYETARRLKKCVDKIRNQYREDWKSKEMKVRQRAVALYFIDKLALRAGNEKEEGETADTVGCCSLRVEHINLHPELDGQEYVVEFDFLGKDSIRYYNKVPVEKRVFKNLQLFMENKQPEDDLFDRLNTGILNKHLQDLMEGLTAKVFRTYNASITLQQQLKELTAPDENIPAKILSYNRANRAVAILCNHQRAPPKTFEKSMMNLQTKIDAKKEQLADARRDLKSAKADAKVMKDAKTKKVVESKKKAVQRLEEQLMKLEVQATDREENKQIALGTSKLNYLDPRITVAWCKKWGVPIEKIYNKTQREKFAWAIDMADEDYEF

[11] = biological target: DNA topoisomerase 2-alpha (Homo sapiens) (UniProt P11388); test: Inhibition of Topoisomerase 2 (unknown origin) using pBR322 DNA as substrate at 50 uM incubated for 15 mins by EtBr staining based agarose gel electrophoresis method
[12] = biological target: T1, DNA topoisomerase 1 (Homo sapiens); test: Inhibition of Topoisomerase I (unknown origin) using pBR322 DNA as substrate at 200 uM incubated for 15 mins by EtBr staining based agarose gel electrophoresis method relative to control
[13] = biological target: DNA topoisomerase 2-alpha (Homo sapiens) (UniProt P11388); test: Inhibition of Topoisomerase 2 (unknown origin) using pBR322 DNA as substrate at 0.5 uM incubated for 15 mins by EtBr staining based agarose gel electrophoresis method
[14] = biological target: T1, DNA topoisomerase 1 (Homo sapiens); test: Inhibition of Topoisomerase I (unknown origin) using pBR322 DNA as substrate at 1 uM incubated for 15 mins by EtBr staining based agarose gel electrophoresis method
[15] = biological target: DNA topoisomerase 2-alpha (Homo sapiens) (UniProt P11388); test: Inhibition of Topoisomerase 2 (unknown origin) using pBR322 DNA as substrate at 100 uM incubated for 15 mins by EtBr staining based agarose gel electrophoresis method relative to control
[16] = biological target: T1, DNA topoisomerase 1 (Homo sapiens); test: Inhibition of Topoisomerase I (unknown origin) using pBR322 DNA as substrate at 50 uM incubated for 15 mins by EtBr staining based agarose gel electrophoresis method
[17] = biological target: T1, DNA topoisomerase 1 (Homo sapiens); test: Inhibition of Topoisomerase I (unknown origin) using pBR322 DNA as substrate at 2 uM incubated for 15 mins by EtBr staining based agarose gel electrophoresis method
[18] = biological target: T1, DNA topoisomerase 1 (Homo sapiens); test: Inhibition of Topoisomerase I (unknown origin) using pBR322 DNA as substrate at 5 uM incubated for 15 mins by EtBr staining based agarose gel electrophoresis method
NCI-H446 [19] = test: Inhibition of colony formation in human NCI-H446 cells at 2 uM incubated for 24 hrs by crystal violet staining based analysis relative to control; type: functional
NCI-H446 [20] = test: Induction of cell cycle arrest in human NCI-H446 cells assessed as accumulation of cells at G2/M phase at 8 uM incubated for 48 hrs by propidium iodide/RNase A staining based flow cytometry; type: functional
NCI-H446 [21] = test: Induction of DNA damage in human NCI-H446 cells assessed as tail DNA at 8 uM incubated for 48 hrs by comet assay relative to control; type: functional
NCI-H446 [22] = test: Inhibition of colony formation in human NCI-H446 cells at 1 uM incubated for 24 hrs by crystal violet staining based analysis relative to control; type: functional
NCI-H446 [23] = test: Induction of DNA damage in human NCI-H446 cells assessed as increase in intracellular gamma-H2AX level at 8 uM incubated for 48 hrs by Western blotting analysis; type: functional, cell-based
NCI-H446 [24] = test: Induction of apoptosis in human NCI-H446 cells at 8 uM incubated for 48 hrs by Annexin V-FITC/PI staining based flow cytometry relative to control; type: functional
NCI-H446 [25] = test: Induction of DNA damage in human NCI-H446 cells assessed as increase in intracellular ROS level at 8 uM incubated for 6 hrs by DCFHDA probe based fluorescence microscopic analysis; type: functional, cell-based
NCI-H446 [26] = test: Induction of cell cycle arrest in human NCI-H446 cells assessed as accumulation of cells at S phase at 8 uM incubated for 48 hrs by propidium iodide/RNase A staining based flow cytometry; type: functional
NCI-H446 [27] = test: Inhibition of cell migration in human NCI-H446 cells at 4 uM incubated for 48 hrs by phase-contrast microscopic analysis relative to control; type: functional
HCT-116 [28] = test: Antitumor activity against human HCT-116 cells xenografted with BALB/c mouse assessed as tumor growth inhibition by measuring T/C ratio at 20 mg/kg,ip administrated twice weekly for 21 days; type: functional, organism-based; details: time 21.0 day
HCT-116 [29] = test: Antitumor activity against human HCT-116 cells xenografted with BALB/c mouse assessed as tumor growth inhibition at 20 mg/kg,ip administrated twice weekly for 21 days relative to control; type: functional, organism-based; details: time 21.0 day

Row | IC50 (HCT-116 [3]) [nM] | IC50 (DU-145) [nM] | IC50 (NCI-H2228) [nM] | IC50 (A549) [nM] | IC50 (MDA-MB-231) [nM] | IC50 (PC-3) [nM] | IC50 (MCF7) [nM] | IC50 (Huh-7) [nM] | IC50 (NCI-H1975) [nM] | IC50 (NCI-H1650) [nM] | IC50 (PC-9) [nM] | IC50 (NCI-H446 [7]) [nM] | SMILES | IC50 at 96 h [5] [nM] | Activity [6] [%] | other results
1 | – | – | – | – | – | – | – | – | – | – | – | – | CC[C@@]1(O)C(=O)OCc2c1cc1n(c2=O)Cc2cc3c(CN(C)C)c(O)ccc3nc2-1 [TOPOTECAN] | – | – | Activity [1]: > 10%; LD50 at 336 h [2]: < 1000 mg/kg
2 | 2000 | 1650 | 2510 | > 10000 | 2870 | 1590 | 1180 | 3800 | 340 | 2650 | 2220 | 240 | COc1cc([C@@H]2c3cc4c(cc3[C@@H](O[C@@H]3O[C@@H]5CO[C@@H](C)O[C@H]5[C@H](O)[C@H]3O)[C@H]3COC(=O)[C@H]23)OCO4)cc(OC)c1O [ETOPOSIDE] | > 10000 | > 10 | T/C (NCI-H446 [4]): 68.2%; inhibition in vivo at 4 mg/kg (NCI-H446 [8]): 27.7%
3 | 1870 | – | 3640 | – | 1640 | 2440 | 2860 | 4100 | – | – | – | – | O=C(CCCn1c2cc3c(cc2c2nc(Cl)c4ccccc4c21)OCO3)NO | – | – | inhibition [9]: Active; inhibition [10]: Active; inhibition [11]: Active; inhibition [12]: > 95%; inhibition [13]: Active; inhibition [14]: Active; inhibition [15]: > 95%; inhibition [16]: Active; inhibition [17]: Active; inhibition [18]: Active
4 | 3160 | 960 | 3430 | > 10000 | > 10000 | 3670 | 4590 | > 10000 | 3410 | 6800 | 3840 | 780 | CCc1c2c(nc3ccc(OC(=O)N4CCC(N5CCCCC5)CC4)cc13)-c1cc3c(c(=O)n1C2)COC(=O)[C@]3(O)CC [IRINOTECAN] | > 10000 | > 10 | inhibition at 2 µM (NCI-H446 [19]): 33.7%; Activity (NCI-H446 [20]): 59.3%; Activity (NCI-H446 [21]): 27.8%; inhibition at 1 µM (NCI-H446 [22]): 85.8%; Activity (NCI-H446 [23]): Active; Activity (NCI-H446 [24]): 5.3%; Activity (NCI-H446 [25]): Active; Activity (NCI-H446 [26]): 59.3%; inhibition at 4 µM (NCI-H446 [27]): 54.5%; inhibition (HCT-116 [28]): Active; inhibition (HCT-116 [29]): Active
